According to patent publication US20250255874A1, “Methods for Treating Immune Thrombocytopenia By Administering (R)-2-[3-[4-Amino-3-(2-Fluoro-4-Phenoxy-Phenyl)Pyrazolo[3,4-D]Pyrimidin-1-YL]Piperidine-1-Carbonyl]-4-Methyl-4-[4-(Oxetan-3-YL)Piperazin-1-YL]Pent-2-Enentrile” (Principia Biopharma Inc., priority 2022, published 2025):

Tested on: patients with relapsed/refractory immune thrombocytopenia
Test: Phase 1/2 study (NCT03395210) Part A, safety;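 further: adverse events graded by NCI CTCAE version 4.0, with worsening of pre-existing conditions counted as adverse events, analysed in the Safety Population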
[1] = patients who initiated at all doses

CC(C)(C=C(C#N)C(=O)N1CCC[C@@H](n2nc(-c3ccc(Oc4ccccc4)cc3F)c3c(N)ncnc32)C1)N1CCN(C2COC2)CC1 [rilzabrutinib, (R)-2-[3-[4-amino-3-(2-fluoro-4-phenoxy-phenyl)pyrazolo[3,4-d]pyrimidin-1-yl]piperidine-1-carbonyl]-4-methyl-4-[4-(oxetan-3-yl)piperazin-1-yl]pent-2-enenitrile]
Nasal congestion, TEAEs Due to Any Cause, Any grade (Safety Population, N = 60): 2 (3) number of patients (percent) | Nasal congestion, TEAEs Due to Any Cause, Grade 1 (Safety Population, N = 60): 1 (2) number of patients (percent) | Nasal congestion, TEAEs Due to Any Cause, Grade 2 (Safety Population, N = 60): 1 (2) number of patients (percent) | Nasopharyngitis, TEAEs Due to Any Cause, Any grade (Safety Population, N = 60): 3 (5) number of patients (percent) | Nasopharyngitis, TEAEs Due to Any Cause, Grade 1 (Safety Population, N = 60): 2 (3) number of patients (percent) | Nasopharyngitis, TEAEs Due to Any Cause, Grade 2 (Safety Population, N = 60): 1 (2) number of patients (percent) | Nausea, TEAEs Due to Any Cause, Any grade (Safety Population, N = 60): 21 (35) number of patients (percent) | Nausea, TEAEs Due to Any Cause, Grade 1 (Safety Population, N = 60): 18 (30) number of patients (percent) | Nausea, TEAEs Due to Any Cause, Grade 2 (Safety Population, N = 60): 3 (5) number of patients (percent) | Nausea, Treatment-Related TEAEs, Any grade (Safety Population, N = 60): 18 (30) number of patients (percent) | Nausea, Treatment-Related TEAEs, Grade 1 (Safety Population, N = 60): 16 (27) number of patients (percent) | Nausea, Treatment-Related TEAEs, Grade 2 (Safety Population, N = 60): 2 (3) number of patients (percent) | Peripheral swelling, TEAEs Due to Any Cause, Any grade (Safety Population, N = 60): 3 (5) number of patients (percent) | Peripheral swelling, TEAEs Due to Any Cause, Grade 1 (Safety Population, N = 60): 3 (5) number of patients (percent) | Petechiae, TEAEs Due to Any Cause, Any grade (Safety Population, N = 60): 4 (7) number of patients (percent) | Petechiae, TEAEs Due to Any Cause, Grade 1 (Safety Population, N = 60): 4 (7) number of patients (percent) | Pruritus, TEAEs Due to Any Cause, Any grade (Safety Population, N = 60): 2 (3) number of patients (percent) | Pruritus, TEAEs Due to Any Cause, Grade 1 (Safety Population, N = 60): 1 (2) number of patients (percent) | Pruritus, TEAEs Due to Any Cause, Grade 2 (Safety Population, N = 60): 1 (2) number of patients (percent) | Pruritus, Treatment-Related TEAEs, Any grade (Safety Population, N = 60): 2 (3) number of patients (percent) | Pruritus, Treatment-Related TEAEs, Grade 1 (Safety Population, N = 60): 1 (2) number of patients (percent) | Pruritus, Treatment-Related TEAEs, Grade 2 (Safety Population, N = 60): 1 (2) number of patients (percent) | Purpura, TEAEs Due to Any Cause, Any grade (Safety Population, N = 60): 2 (3) number of patients (percent) | Purpura, TEAEs Due to Any Cause, Grade 1 (Safety Population, N = 60): 2 (3) number of patients (percent) | Rash, TEAEs Due to Any Cause, Any grade (Safety Population, N = 60): 3 (5) number of patients (percent) | Rash, TEAEs Due to Any Cause, Grade 1 (Safety Population, N = 60): 1 (2) number of patients (percent) | Rash, TEAEs Due to Any Cause, Grade 2 (Safety Population, N = 60): 2 (3) number of patients (percent) | Rash, Treatment-Related TEAEs, Any grade (Safety Population, N = 60): 1 (2) number of patients (percent) | Rash, Treatment-Related TEAEs, Grade 1 (Safety Population, N = 60): 1 (2) number of patients (percent) | Thrombocytopenia, TEAEs Due to Any Cause, Any grade (Safety Population, N = 60): 2 (3) number of patients (percent) | Thrombocytopenia, TEAEs Due to Any Cause, Grade 3/4 (Safety Population, N = 60): 2 (3) number of patients (percent) | Upper abdominal pain, TEAEs Due to Any Cause, Any grade (Safety Population, N = 60): 3 (5) number of patients (percent) | Upper abdominal pain, TEAEs Due to Any Cause, Grade 1 (Safety Population, N = 60): 2 (3) number of patients (percent) | Upper abdominal pain, TEAEs Due to Any Cause, Grade 2 (Safety Population, N = 60): 1 (2) number of patients (percent) | Upper abdominal pain, Treatment-Related TEAEs, Any grade (Safety Population, N = 60): 2 (3) number of patients (percent) | Upper abdominal pain, Treatment-Related TEAEs, Grade 1 (Safety Population, N = 60): 1 (2) number of patients (percent) | Upper abdominal pain, Treatment-Related TEAEs, Grade 2 (Safety Population, N = 60): 1 (2) number of patients (percent) | Upper respiratory tract infection, TEAEs Due to Any Cause, Any grade (Safety Population, N = 60): 3 (5) number of patients (percent) | Upper respiratory tract infection, TEAEs Due to Any Cause, Grade 1 (Safety Population, N = 60): 2 (3) number of patients (percent) | Upper respiratory tract infection, TEAEs Due to Any Cause, Grade 2 (Safety Population, N = 60): 1 (2) number of patients (percent) | Urinary tract infection, TEAEs Due to Any Cause, Any grade (Safety Population, N = 60): 2 (3) number of patients (percent) | Urinary tract infection, TEAEs Due to Any Cause, Grade 1 (Safety Population, N = 60): 1 (2) number of patients (percent) | Urinary tract infection, TEAEs Due to Any Cause, Grade 2 (Safety Population, N = 60): 1 (2) number of patients (percent) | Vomiting, TEAEs Due to Any Cause, Any grade (Safety Population, N = 60): 4 (7) number of patients (percent) | Vomiting, TEAEs Due to Any Cause, Grade 1 (Safety Population, N = 60): 3 (5) number of patients (percent) | Vomiting, TEAEs Due to Any Cause, Grade 2 (Safety Population, N = 60): 1 (2) number of patients (percent) | Vomiting, Treatment-Related TEAEs, Any grade (Safety Population, N = 60): 3 (5) number of patients (percent) | Vomiting, Treatment-Related TEAEs, Grade 1 (Safety Population, N = 60): 2 (3) number of patients (percent) | Vomiting, Treatment-Related TEAEs, Grade 2 (Safety Population, N = 60): 1 (2) number of patients (percent) | TEAE resulting in study drug discontinuation: administrative and site conditions (in vivo): 1 (2%) patients (%) | TEAE resulting in study drug discontinuation: gastrointestinal (GI) disorders (in vivo): 4 (7%) patients (%) | TEAE resulting in study drug discontinuation: lymphatic system disorders (in vivo): 2 (4%) patients (%) | treatment-related any-grade TEAE: diarrhea [1]: 32% | treatment-related any-grade TEAE: fatigue [1]: 10% | treatment-related any-grade TEAE: nausea [1]: 30% | patient death (unrelated to treatment, 400 mg bid discontinued on day 8, pre-existing Evans syndrome): 1 patient
